Legend:
Experiment in all cases: Bliss interaction score (quartile over a dose matrix) (fitness difference); higher = more antagonism (negative = synergy)
S. aureus DSM 20231 = tested on: S. aureus DSM 20231
How it was run: (§1)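 Fitness here means normalised growth, inferred for single drugs from the combination data. Growth was OD595 at entry into stationary phase, divided by the plate's robust no-drug mean and capped at 1. The Bliss score is observed minus expected fitness, with the expectation being the product, and its quartiles span technical, biological and donor/recipient replicates.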

S. aureus Newman = tested on: S. aureus Newman
How it was run: as §1

S. pneumoniae D39V = tested on: S. pneumoniae D39V
How it was run: as §1

B. subtilis 168 = tested on: B. subtilis 168
How it was run: as §1
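Further: first quartile when negative (synergy) and third quartile when positive (antagonism).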

CO/N=C(\C(=O)N[C@@H]1C(=O)N2C(C(=O)[O-])=C(C[N+]3(C)CCCC3)CS[C@H]12)c1csc(N)n1 [Cefepime] + CO[C@@H]1[C@@H](OC(N)=O)[C@@H](O)[C@H](Oc2ccc3c(O)c(NC(=O)c4ccc(O)c(CC=C(C)C)c4)c(=O)oc3c2C)OC1(C)C [Novobiocin] was tested. Which Bliss interaction score (S. aureus DSM 20231) did it give?
The Bliss interaction score was 0.0654.

And the Bliss interaction score (S. aureus Newman)?
Its Bliss interaction score is 0.0516.

And the Bliss interaction score (S. pneumoniae D39V)?
Its Bliss interaction score is -0.098.

And the Bliss interaction score (B. subtilis 168)?
The Bliss interaction score was -0.104.

CO/N=C(\C(=O)N[C@@H]1C(=O)N2C(C(=O)[O-])=C(C[N+]3(C)CCCC3)CS[C@H]12)c1csc(N)n1 [Cefepime] + CO[C@@]12[C@H](COC(N)=O)C3=C(C(=O)C(C)=C(N)C3=O)N1C[C@@H]1N[C@@H]12 [MitomycinC] was tested. Which Bliss interaction score (S. aureus DSM 20231) did it give?
The Bliss interaction score was -0.0534.

What about the Bliss interaction score (S. aureus Newman) of the same molecule?
Its Bliss interaction score is 0.0543.

What about the Bliss interaction score (S. pneumoniae D39V) of the same molecule?
The Bliss interaction score was 0.125.

What about the Bliss interaction score (B. subtilis 168) of the same molecule?
Its Bliss interaction score is -0.153.

What does the source list for CO/N=C(\C(=O)N[C@@H]1C(=O)N2C(C(=O)[O-])=C(C[N+]3(C)CCCC3)CS[C@H]12)c1csc(N)n1 [Cefepime] + COc1cccc2c1C(=O)c1c(O)c3c(c(O)c1C2=O)C[C@@](O)(C(=O)CO)C[C@@H]3O[C@H]1C[C@H](N)[C@H](O)[C@H](C)O1 [Doxorubicin]?
Bliss interaction score (S. aureus DSM 20231): -0.1; Bliss interaction score (S. aureus Newman): -0.0429; Bliss interaction score (S. pneumoniae D39V): 0.0847; Bliss interaction score (B. subtilis 168): -0.239

What does the source list for CO/N=C(\C(=O)N[C@@H]1C(=O)N2C(C(=O)[O-])=C(C[N+]3(C)CCCC3)CS[C@H]12)c1csc(N)n1 [Cefepime] + C[C@H]1c2cccc(O)c2C(=O)C2=C(O)[C@]3(O)C(=O)C(C(N)=O)=C(O)[C@@H](N(C)C)[C@@H]3[C@@H](O)[C@@H]21 [Doxycycline]?
Bliss interaction score (S. aureus DSM 20231): 0.119; Bliss interaction score (S. aureus Newman): 0.0446; Bliss interaction score (S. pneumoniae D39V): 0.203; Bliss interaction score (B. subtilis 168): 0.0669

Which results are given for CO/N=C(\C(=O)N[C@@H]1C(=O)N2C(C(=O)[O-])=C(C[N+]3(C)CCCC3)CS[C@H]12)c1csc(N)n1 [Cefepime] + N[C@@H]1CONC1=O [CycloserineD]?
Bliss interaction score (S. aureus DSM 20231): 0.0932; Bliss interaction score (S. aureus Newman): -0.0561; Bliss interaction score (S. pneumoniae D39V): 0.0926; Bliss interaction score (B. subtilis 168): 0.0718

Which Bliss interaction score (S. aureus DSM 20231) does the source give for CO/N=C(\C(=O)N[C@@H]1C(=O)N2C(C(=O)[O-])=C(C[N+]3(C)CCCC3)CS[C@H]12)c1csc(N)n1 [Cefepime] + O=C(N[C@H](CO)[C@H](O)c1ccc([N+](=O)[O-])cc1)C(Cl)Cl [Chloramphenicol] here?
Its Bliss interaction score is 0.158.

What about the Bliss interaction score (S. aureus Newman) of the same molecule?
Its Bliss interaction score is 0.0591.

What about the Bliss interaction score (S. pneumoniae D39V) of the same molecule?
Its Bliss interaction score is 0.149.

What about the Bliss interaction score (B. subtilis 168) of the same molecule?
Its Bliss interaction score is 0.109.

With CO/N=C(\C(=O)N[C@@H]1C(=O)N2C(C(=O)[O-])=C(C[N+]3(C)CCCC3)CS[C@H]12)c1csc(N)n1 [Cefepime] + O=C(O)[C@H]1/C(=C/CO)O[C@@H]2CC(=O)N21 [Clavulanic] as the molecule, how does the Bliss interaction score (S. aureus DSM 20231) read?
The Bliss interaction score was 0.0843.

What about the Bliss interaction score (S. aureus Newman) of the same molecule?
The Bliss interaction score was 0.0605.

And the Bliss interaction score (S. pneumoniae D39V)?
The Bliss interaction score was -0.0597.

What about the Bliss interaction score (B. subtilis 168) of the same molecule?
The Bliss interaction score was -0.0808.

Which Bliss interaction score (S. aureus DSM 20231) does the source give for CO/N=C(\C(=O)N[C@@H]1C(=O)N2C(C(=O)[O-])=C(C[N+]3(C)CCCC3)CS[C@H]12)c1csc(N)n1 [Cefepime] + O=C(O)c1cn(C2CC2)c2cc(N3CCNCC3)c(F)cc2c1=O [Ciprofloxacin] here?
The Bliss interaction score was -0.0463.

What about the Bliss interaction score (S. aureus Newman) of the same molecule?
Its Bliss interaction score is 0.0601.

What about the Bliss interaction score (S. pneumoniae D39V) of the same molecule?
The Bliss interaction score was 0.147.

And the Bliss interaction score (B. subtilis 168)?
The Bliss interaction score was -0.193.

What does the source list for CO/N=C(\C(=O)N[C@@H]1C(=O)N2C(C(=O)[O-])=C(C[N+]3(C)CCCC3)CS[C@H]12)c1csc(N)n1 [Cefepime] + O=C(O[C@@H]1Cc2c(O)cc(O)cc2O[C@@H]1c1cc(O)c(O)c(O)c1)c1cc(O)c(O)c(O)c1 [EGCG]?
Bliss interaction score (S. aureus DSM 20231): -0.159; Bliss interaction score (S. aureus Newman): -0.0498; Bliss interaction score (S. pneumoniae D39V): 0.0602; Bliss interaction score (B. subtilis 168): 0.0402

For CO/N=C(\C(=O)N[C@@H]1C(=O)N2C(C(=O)[O-])=C(C[N+]3(C)CCCC3)CS[C@H]12)c1csc(N)n1 [Cefepime] + Oc1cc(Cl)ccc1Oc1ccc(Cl)cc1Cl [Triclosan], which Bliss interaction score (S. aureus DSM 20231) is on record?
The Bliss interaction score was 0.0725.

And the Bliss interaction score (S. aureus Newman)?
Its Bliss interaction score is -0.0285.

And the Bliss interaction score (S. pneumoniae D39V)?
The Bliss interaction score was -0.0485.

What about the Bliss interaction score (B. subtilis 168) of the same molecule?
Its Bliss interaction score is 0.0502.

CCCCCCCCCC(=O)N[C@@H](Cc1c[nH]c2ccccc12)C(=O)N[C@H](CC(N)=O)C(=O)N[C@@H](CC(=O)O)C(=O)N[C@@H]1C(=O)NCC(=O)N[C@@H](CCCN)C(=O)N[C@@H](CC(=O)O)C(=O)N[C@H](C)C(=O)N[C@@H](CC(=O)O)C(=O)NCC(=O)N[C@H](CO)C(=O)N[C@@H]([C@H](C)CC(=O)O)C(=O)N[C@@H](CC(=O)c2ccccc2N)C(=O)O[C@@H]1C [Daptomycin] + CC1(C)S[C@@H]2[C@H](NC(=O)Cc3ccccc3)C(=O)N2[C@H]1C(=O)O [PenicillinG] was tested. Which Bliss interaction score (S. aureus DSM 20231) did it give?
Its Bliss interaction score is 0.0411.

And the Bliss interaction score (S. aureus Newman)?
Its Bliss interaction score is 0.0645.

And the Bliss interaction score (S. pneumoniae D39V)?
The Bliss interaction score was 0.107.

And the Bliss interaction score (B. subtilis 168)?
The Bliss interaction score was 0.101.

With CCCCCCCCCC(=O)N[C@@H](Cc1c[nH]c2ccccc12)C(=O)N[C@H](CC(N)=O)C(=O)N[C@@H](CC(=O)O)C(=O)N[C@@H]1C(=O)NCC(=O)N[C@@H](CCCN)C(=O)N[C@@H](CC(=O)O)C(=O)N[C@H](C)C(=O)N[C@@H](CC(=O)O)C(=O)NCC(=O)N[C@H](CO)C(=O)N[C@@H]([C@H](C)CC(=O)O)C(=O)N[C@@H](CC(=O)c2ccccc2N)C(=O)O[C@@H]1C [Daptomycin] + CC(=O)O[C@H]1C[C@@]2(C)[C@@H](C[C@@H](O)[C@H]3[C@@]4(C)CC[C@@H](O)[C@@H](C)[C@@H]4CC[C@@]32C)/C1=C(\CCC=C(C)C)C(=O)O [Fusidic acid] as the molecule, how does the Bliss interaction score (S. aureus DSM 20231) read?
The Bliss interaction score was 0.0265.

What about the Bliss interaction score (S. aureus Newman) of the same molecule?
The Bliss interaction score was -0.0422.

What about the Bliss interaction score (S. pneumoniae D39V) of the same molecule?
The Bliss interaction score was -0.109.

And the Bliss interaction score (B. subtilis 168)?
The Bliss interaction score was 0.0625.

CCCCCCCCCC(=O)N[C@@H](Cc1c[nH]c2ccccc12)C(=O)N[C@H](CC(N)=O)C(=O)N[C@@H](CC(=O)O)C(=O)N[C@@H]1C(=O)NCC(=O)N[C@@H](CCCN)C(=O)N[C@@H](CC(=O)O)C(=O)N[C@H](C)C(=O)N[C@@H](CC(=O)O)C(=O)NCC(=O)N[C@H](CO)C(=O)N[C@@H]([C@H](C)CC(=O)O)C(=O)N[C@@H](CC(=O)c2ccccc2N)C(=O)O[C@@H]1C [Daptomycin] + CC[C@H]1OC(=O)[C@H](C)C(=O)[C@H](C)[C@@H](O[C@@H]2O[C@H](C)C[C@H](N(C)C)[C@H]2O)[C@](C)(OC)C[C@@H](C)C(=O)[C@H](C)[C@H]2N(CCCCn3cnc(-c4cccnc4)c3)C(=O)O[C@]12C [Telithromycin] was tested. Which Bliss interaction score (S. aureus DSM 20231) did it give?
The Bliss interaction score was 0.0926.

And the Bliss interaction score (S. aureus Newman)?
The Bliss interaction score was 0.0361.

And the Bliss interaction score (S. pneumoniae D39V)?
The Bliss interaction score was -0.0436.

What about the Bliss interaction score (B. subtilis 168) of the same molecule?
The Bliss interaction score was 0.0516.

With CCCCCCCCCC(=O)N[C@@H](Cc1c[nH]c2ccccc12)C(=O)N[C@H](CC(N)=O)C(=O)N[C@@H](CC(=O)O)C(=O)N[C@@H]1C(=O)NCC(=O)N[C@@H](CCCN)C(=O)N[C@@H](CC(=O)O)C(=O)N[C@H](C)C(=O)N[C@@H](CC(=O)O)C(=O)NCC(=O)N[C@H](CO)C(=O)N[C@@H]([C@H](C)CC(=O)O)C(=O)N[C@@H](CC(=O)c2ccccc2N)C(=O)O[C@@H]1C [Daptomycin] + CC[C@H]1OC(=O)[C@H](C)[C@@H](O[C@H]2C[C@@](C)(OC)[C@@H](O)[C@H](C)O2)[C@H](C)[C@@H](O[C@@H]2O[C@H](C)C[C@H](N(C)C)[C@H]2O)[C@](C)(O)C[C@@H](C)C(=O)[C@H](C)[C@@H](O)[C@]1(C)O [Erythromycin] as the molecule, how does the Bliss interaction score (S. aureus DSM 20231) read?
Its Bliss interaction score is 0.0418.

And the Bliss interaction score (S. aureus Newman)?
The Bliss interaction score was -0.034.

And the Bliss interaction score (S. pneumoniae D39V)?
The Bliss interaction score was -0.0815.

What about the Bliss interaction score (B. subtilis 168) of the same molecule?
The Bliss interaction score was 0.102.

What does the source list for CCCCCCCCCC(=O)N[C@@H](Cc1c[nH]c2ccccc12)C(=O)N[C@H](CC(N)=O)C(=O)N[C@@H](CC(=O)O)C(=O)N[C@@H]1C(=O)NCC(=O)N[C@@H](CCCN)C(=O)N[C@@H](CC(=O)O)C(=O)N[C@H](C)C(=O)N[C@@H](CC(=O)O)C(=O)NCC(=O)N[C@H](CO)C(=O)N[C@@H]([C@H](C)CC(=O)O)C(=O)N[C@@H](CC(=O)c2ccccc2N)C(=O)O[C@@H]1C [Daptomycin] + CN[C@H](CC(C)C)C(=O)N[C@H]1C(=O)N[C@@H](CC(N)=O)C(=O)N[C@H]2C(=O)N[C@H]3C(=O)N[C@H](C(=O)N[C@H](C(=O)O)c4cc(O)cc(O)c4-c4cc3ccc4O)[C@H](O[C@H]3C[C@](C)(N)[C@@H](O)[C@H](C)O3)c3ccc(c(Cl)c3)Oc3cc2cc(c3O[C@@H]2O[C@H](CO)[C@@H](O)[C@H](O)[C@H]2O[C@H]2C[C@](C)(NCc3ccc(-c4ccc(Cl)cc4)cc3)[C@@H](O)[C@H](C)O2)Oc2ccc(cc2Cl)[C@H]1O [Oritavancin]?
Bliss interaction score (S. aureus DSM 20231): 0.0891; Bliss interaction score (S. aureus Newman): 0.0913; Bliss interaction score (S. pneumoniae D39V): 0.0853; Bliss interaction score (B. subtilis 168): -0.0305

How did the Bliss interaction score (S. aureus DSM 20231) turn out when CCCCCCCCCC(=O)N[C@@H](Cc1c[nH]c2ccccc12)C(=O)N[C@H](CC(N)=O)C(=O)N[C@@H](CC(=O)O)C(=O)N[C@@H]1C(=O)NCC(=O)N[C@@H](CCCN)C(=O)N[C@@H](CC(=O)O)C(=O)N[C@H](C)C(=O)N[C@@H](CC(=O)O)C(=O)NCC(=O)N[C@H](CO)C(=O)N[C@@H]([C@H](C)CC(=O)O)C(=O)N[C@@H](CC(=O)c2ccccc2N)C(=O)O[C@@H]1C [Daptomycin] + CO[C@@]12[C@H](COC(N)=O)C3=C(C(=O)C(C)=C(N)C3=O)N1C[C@@H]1N[C@@H]12 [MitomycinC] was run?
Its Bliss interaction score is 0.0739.

What about the Bliss interaction score (S. aureus Newman) of the same molecule?
Its Bliss interaction score is -0.0398.

What about the Bliss interaction score (S. pneumoniae D39V) of the same molecule?
The Bliss interaction score was -0.0769.

What about the Bliss interaction score (B. subtilis 168) of the same molecule?
Its Bliss interaction score is 0.0997.
